Experimental data published in patent US7098204B2 (C.N.R.S., priority 1999, dated 2006).
pIC50: −log10 of the molar value. ≈ marks a conversion by molar mass, not a printed value. Read-outs that look alike come from different tables or passages of the source.

Experiments:
[1] = molecular target: cdk5/p25 (Homo sapiens, UniProt Q00535); assay: CDK5/p25 kinase assay; type: biochemical; conditions: for pIC50: 15 μM ATP, −(x) = no effect at highest concentration x tested
Protocol: (§1) Kinases activities were assayed in Buffer A or C (unless otherwise stated), at 30° C., at a final ATP concentration of 15 μM. Blank values were subtracted and activities calculated as pmoles of phosphate incorporated for a 10 min. incubation (usually expressed in % of the maximal activity, i.e. without inhibitors). Controls were performed with appropriate dilutions of Me2SO. In some cases phosphorylation of the substrate was assessed by autoradiography after SDS-PAGE. IC50 values were estimated from the dose-response curves. • CDK1/cyclin B was extracted in homogenisation buffer from M phase starfish (Marthasterias glacialis) oocytes and purified by affinity chromatography on p9^CKShs1-Sepharose beads, from which it was eluted by free p9^CKShs1 as described. The kinase activity was assayed in buffer C, with 1 mg histone H1/ml, in the presence of 15 μM [γ-^32P] ATP (3,000 Ci/mmol; 1 mCi/ml) in a final volume of 30 μl. After 10 min. incubation at 30° C., 25 μl aliquots of supernatant were spotted onto 2.5×3 cm pieces of Whatman P81 phosphocellulose paper, and, 20 sec. later, the filters were washed five times (for at least 5 min. each time) in a solution of 10 ml phosphoric acid/liter of water. The wet filters were counted in the presence of 1 ml ACS (Amersham) scintillation fluid. • GSK-3β was either purified from rabbit muscle or expressed in and purified from insect Sf9 cells. It was assayed, following a 1/100 dilution in 1 mg BSA/ml 10 mM DTT, with 5 μl 40 μM GS-1 peptide as a substrate, in buffer A, in the presence of 15 μM [γ-^32P] ATP (3,000 Ci/mmol; 1 mCi/ml) in a final volume of 30 μl. […] Its activity was assayed in buffer C as described for CDK1/cyclin B. • CDK2/cyclin A, CDK2/cyclin E, CDK3/cyclin E, CDK4/cyclin D1, CDK6/cyclin D2, His-tagged erk1 and erk2, protein kinase C isoforms, the catalytic subunit of cAMP-dependent protein kinase, cGMP-dependent protein kinase, Myosin light chain kinase, casein kinases 1 & 2, ASK-γ (a plant homologue of GSK-3), insulin receptor tyrosine kinase domain (CIRK-41), c-raf, MAPKK, c-jun N terminal kinase (obtained from Promega), c-src kinase and v-abl kinase were assayed as described. Electrophoresis and Western Blotting

[2] = molecular target: casein kinase 1; assay: casein kinase 1 assay; type: biochemical; conditions: 15 μM ATP; −(x) = no effect at highest concentration x tested; read-out: IC50 casein kinase 1 (CK 1)
Protocol: as §1

[3] = molecular target: CDK1/cyclin B; assay: CDK1/cyclin B kinase assay (histone H1); type: biochemical, starfish (Marthasterias glacialis); conditions: 15 μM ATP; −(x) = no effect at highest concentration x tested
Protocol: as §1

[4] = molecular target: T1, GSK3-β (UniProt P18266); assay: GSK-3β kinase assay (GS-1 peptide); type: biochemical, rabbit
T1 construct: GSK-3β was either purified from rabbit muscle or expressed in and purified from insect Sf9 cells [18]
Protocol: as §1

[5] = test system: lung, H460; assay: Human cancer cell line H460 proliferation; type: cell-based; conditions: NCI-H460
[6] = test system: brain, SF-295; assay: Human cancer cell line SF-295 proliferation; type: cell-based
[7] = test system: colon, KM20L2; assay: Human cancer cell line KM20L2 proliferation; type: cell-based; conditions: KM-20L2
[8] = test system: kidney, A498; assay: Human cancer cell line A498 proliferation; type: cell-based
[9] = test system: melanoma, SK-MEL-5; assay: Human cancer cell line SK-MEL-5 proliferation; type: cell-based
[10] = test system: ovary, OVCAR-3; assay: Human cancer cell line OVCAR-3 proliferation; type: cell-based
[11] = test system: GSK-3β like activity in Sf9 cells; assay: Tau (htau23) phosphorylation in Sf9 cells, Western blotting; type: cell-based; conditions: 50 μM, 5 hrs, Sf9 cells expressing htau23
Protocol: Cells and viruses. Sf9 cells (InVitrogen, San Diego, Calif.) were grown at 27° C. in monolayer culture Grace's medium (Gibco BRL, Gaithersburg, Md.) supplemented with 10% fetal bovine serum and 50 μg gentamycin/ml and 2.5 μg amphotericin/ml. BaculoGold was obtained from PharMingen (San Diego, Calif.), pVL1392 from In Vitrogen.
Tau transfection. The gene for htau23, the shortest human tau isoform [27] was excised from the bacterial expression vector pNG2 [28] with XbaI and BamHI, and inserted into the baculovirus transfer vector pVL1392 cut with the same restriction endonucleases. The BaculoGold system was used to construct the tau baculovirus containing vector. The BaculoGold DNA is a modified type of baculovirus containing a lethal deletion. Cotransfection of the BaculoGold DNA with a complementing baculovirus transfer vector rescued the lethal deletion of this virus DNA and reconstituted viable virus particles carrying the htau23 coding sequence. Plasmid DNA used for transfections was purified using QIAGEN cartridges (Hilden, Germany). Sf9 cells grown in monolayers (2×10^6 cells in a 60 mm cell culture dish) were cotransfected with baculovirus DNA (0.5 μg BaculoGold DNA) and with vector derivatives of pVL1392 (2 μg) using a calcium phosphate coprecipitation method. […]

[12] = test system: P388 cell line; assay: Inhibition of cell proliferation, P388; type: cell-based
[13] = 15 μM ATP, −(x) = no effect at highest concentration x tested, read-out: IC50 GSK3-β

Chain of cdk5/p25 (Q00535 whole entry, species assumed): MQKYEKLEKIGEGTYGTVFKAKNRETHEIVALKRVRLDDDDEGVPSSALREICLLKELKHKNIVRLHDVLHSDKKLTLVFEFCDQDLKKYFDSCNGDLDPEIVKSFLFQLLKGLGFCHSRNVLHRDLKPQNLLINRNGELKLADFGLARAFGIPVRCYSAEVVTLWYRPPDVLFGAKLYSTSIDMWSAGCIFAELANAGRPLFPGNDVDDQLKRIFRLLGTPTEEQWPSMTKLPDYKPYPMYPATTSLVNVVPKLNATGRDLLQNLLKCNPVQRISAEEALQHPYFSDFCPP
Chain of cdk5/p25 (Q15078 99-307 partner limits assumed, species assumed): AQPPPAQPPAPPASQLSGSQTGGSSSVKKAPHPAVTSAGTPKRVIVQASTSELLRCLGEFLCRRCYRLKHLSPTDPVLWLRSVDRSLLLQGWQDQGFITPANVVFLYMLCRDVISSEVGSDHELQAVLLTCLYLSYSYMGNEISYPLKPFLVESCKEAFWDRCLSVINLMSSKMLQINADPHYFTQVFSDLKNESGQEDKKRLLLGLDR

| Compound | pIC50 [1] | pIC50 [2] | pIC50 [3] | pIC50 [4, 13] | other results |
| --- | --- | --- | --- | --- | --- |
| O=C([O-])c1ccc[n+](CCOC(=O)c2cc(Br)c[nH]2)c1 [agelongine] | < 4.00 | < 4.00 | < 4.00 | < 4.00 |  |
| O=C1NC(=O)/C(=C2/CCNC(=O)c3[nH]c(Br)cc32)N1 [axinohydantoin] | 5.15 | 5.35 | 5.40 | 5.52 |  |
| Nc1ncc(/C=C/CNC(=O)c2ccc[nH]2)[nH]1 [clathrodin] | < 4.00 | < 4.00 | < 4.00 |  |  |
| Nc1ncc(C2c3nc(N)[nH]c3CC(CNC(=O)c3cc(Br)c(Br)[nH]3)C2CNC(=O)c2cc(Br)c(Br)[nH]2)[nH]1 (centres unmarked) [dibromoageliferin] | < 4.00 | < 4.00 | < 4.00 | 4.96 |  |
| NC1=N[C@H]2c3c([nH]c(Br)c3Br)C(=O)N3CCC[C@]23N1 [dibromocantharelline] | < 4.00 | < 4.00 | < 4.00 |  | pIC50 ([4]; read-out: IC50 towards GSK-3β): 5.52 |
| NC1=N[C@H]2n3c(cc(Br)c3Br)C(=O)N3CCC[C@]23N1 [dibromophakellin, reference compound] |  |  |  |  | IC50 [5]: 22 µg/mL (≈ 56.5 µM); IC50 [6]: 18.8 µg/mL (≈ 48.3 µM); IC50 [7]: 20.1 µg/mL (≈ 51.7 µM); IC50 [8]: 17.8 µg/mL (≈ 45.8 µM); IC50 [9]: 17 µg/mL (≈ 43.7 µM); IC50 [10]: 15.7 µg/mL (≈ 40.4 µM) |
| O=C1N[C@H]2n3c(cc(Br)c3Br)C(=O)N3CCC[C@]23N1 [dibromophakellstatin] | < 4.00 | < 5.00 | < 5.00 | < 5.00 | IC50 [5]: 0.62 µg/mL (≈ 1.59 µM); IC50 [6]: 1.5 µg/mL (≈ 3.85 µM); IC50 [7]: 0.11 µg/mL (≈ 0.282 µM); IC50 [8]: 0.21 µg/mL (≈ 0.538 µM); IC50 [9]: 0.11 µg/mL (≈ 0.282 µM); IC50 [10]: 0.46 µg/mL (≈ 1.18 µM) |
| NC1=NC(=O)/C(=C/CCNC(=O)c2cc(Br)c(Br)[nH]2)N1 [dispacamide A] | < 4.00 | < 4.00 | < 4.00 | < 4.00 |  |
| CN1CC[C@H](c2c(O)cc(O)c3c(=O)cc(-c4ccccc4Cl)oc23)[C@H](O)C1 [flavopiridol, reference compound] |  |  |  |  | AT100 signal (tau phosphorylated at T212 and S214) [11]: disappearance of AT100 signal |
| Nc1ncc(/C=C/CNC(=O)c2cc(Br)c[nH]2)[nH]1 [hymenidin] | 5.40 | < 4.00 | < 4.00 | 4.92 | kinase selectivity among CDK1, CDK5, GSK-3β, CK1 ([1]; in words): selective for CDK5 |
| Nc1ncc(/C=C/CNC(=O)c2cc(Br)c(Br)[nH]2)[nH]1 [oroïdin] | 4.30 | < 4.00 | < 4.00 | 4.70 |  |
| Nc1nc([C@H]2[C@H](CNC(=O)c3cc(Br)c[nH]3)[C@@H](CNC(=O)c3cc(Br)c[nH]3)[C@@H]2c2c[nH]c(N)n2)c[nH]1 [sceptrin] | < 4.00 | < 4.00 | < 4.00 | < 4.00 |  |
| Nc1ncc(C2=CCNC(=O)c3[nH]c(Br)c(Br)c32)[nH]1 [stevensine/odiline] | < 4.00 | < 4.00 | 4.15 | < 4.00 |  |
| agelastatin A | < 4.00 | < 4.00 | < 4.00 | 4.92 |  |
| diacetyldebromohymenialdisine | 5.52 | 5.96 | 5.89 | 6.22 |  |
| diacetylhymenialdisine | 5.82 | 6.26 | 6.89 | 6.80 | IC50 on P388 cell line [12]: 0.56 µg/mL; IC50 ([12]; read-out: IC50 on P388 cell line in μM (parentheses)): 1.7 µM |
